Reference: PMC7935272 (PLoS Pathogens, 2021)

Target: MeV L1708 (Measles virus, UniProt Q9WMB3)
Experiment: Biolayer interferometry, MeV L1708 WT
Format: binding
Conditions: for BLI sensorgram signal: time r4=0 s, r5=0.2 s, r6=0.4 s, r7=0.6 s; for S5 E BLI response versus compound conc. / S5 F BLI response versus compound conc.: L1708 wt; for S5 B BLI sensorgram response / S5 C BLI sensorgram response: MeV L1708 WT

Sequence of MeV L1708 (Q9WMB3 1-1708): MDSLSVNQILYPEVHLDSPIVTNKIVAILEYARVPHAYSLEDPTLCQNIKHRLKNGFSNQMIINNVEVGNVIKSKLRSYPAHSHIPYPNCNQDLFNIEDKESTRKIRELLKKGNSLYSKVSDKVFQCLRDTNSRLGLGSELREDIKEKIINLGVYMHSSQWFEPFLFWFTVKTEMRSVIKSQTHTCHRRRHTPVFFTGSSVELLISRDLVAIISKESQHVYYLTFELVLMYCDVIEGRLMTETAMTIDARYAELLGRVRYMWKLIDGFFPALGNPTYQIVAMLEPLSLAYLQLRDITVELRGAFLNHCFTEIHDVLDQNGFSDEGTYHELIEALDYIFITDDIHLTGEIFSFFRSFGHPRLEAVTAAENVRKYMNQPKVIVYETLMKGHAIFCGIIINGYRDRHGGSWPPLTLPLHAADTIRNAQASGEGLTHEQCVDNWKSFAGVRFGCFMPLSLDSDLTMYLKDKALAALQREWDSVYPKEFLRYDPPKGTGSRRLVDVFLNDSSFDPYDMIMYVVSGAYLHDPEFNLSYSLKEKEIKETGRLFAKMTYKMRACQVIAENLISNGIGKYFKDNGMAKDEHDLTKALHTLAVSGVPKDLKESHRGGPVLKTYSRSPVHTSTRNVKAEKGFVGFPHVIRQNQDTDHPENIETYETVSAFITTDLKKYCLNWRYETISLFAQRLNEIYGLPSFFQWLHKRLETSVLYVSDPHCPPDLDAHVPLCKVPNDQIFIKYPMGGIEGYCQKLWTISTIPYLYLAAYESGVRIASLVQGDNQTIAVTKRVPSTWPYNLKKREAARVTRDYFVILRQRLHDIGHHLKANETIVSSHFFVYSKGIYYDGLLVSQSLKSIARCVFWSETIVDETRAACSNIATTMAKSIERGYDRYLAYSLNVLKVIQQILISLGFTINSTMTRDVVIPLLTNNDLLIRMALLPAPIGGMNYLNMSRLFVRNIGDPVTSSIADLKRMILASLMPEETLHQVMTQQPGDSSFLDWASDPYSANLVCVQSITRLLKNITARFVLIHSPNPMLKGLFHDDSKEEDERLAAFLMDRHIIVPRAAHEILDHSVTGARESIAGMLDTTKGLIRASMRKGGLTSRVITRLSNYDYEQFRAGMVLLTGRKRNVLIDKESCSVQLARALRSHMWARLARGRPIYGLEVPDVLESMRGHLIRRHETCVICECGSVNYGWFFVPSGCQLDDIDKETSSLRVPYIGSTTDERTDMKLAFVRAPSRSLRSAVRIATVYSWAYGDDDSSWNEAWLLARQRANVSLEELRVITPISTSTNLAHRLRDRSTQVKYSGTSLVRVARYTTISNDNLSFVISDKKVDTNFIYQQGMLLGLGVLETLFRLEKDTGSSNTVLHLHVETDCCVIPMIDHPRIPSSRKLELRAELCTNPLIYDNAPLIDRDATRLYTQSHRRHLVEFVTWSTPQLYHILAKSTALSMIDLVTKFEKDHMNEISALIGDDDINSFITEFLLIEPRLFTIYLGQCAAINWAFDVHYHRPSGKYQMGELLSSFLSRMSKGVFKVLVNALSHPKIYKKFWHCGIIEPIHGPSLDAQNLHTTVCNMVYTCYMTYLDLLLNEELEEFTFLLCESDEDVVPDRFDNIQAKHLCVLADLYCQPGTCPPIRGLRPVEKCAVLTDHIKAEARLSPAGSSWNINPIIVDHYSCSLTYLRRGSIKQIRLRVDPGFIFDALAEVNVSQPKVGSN
Sequence of MeV L1708 (Q9WMB4 whole entry partner): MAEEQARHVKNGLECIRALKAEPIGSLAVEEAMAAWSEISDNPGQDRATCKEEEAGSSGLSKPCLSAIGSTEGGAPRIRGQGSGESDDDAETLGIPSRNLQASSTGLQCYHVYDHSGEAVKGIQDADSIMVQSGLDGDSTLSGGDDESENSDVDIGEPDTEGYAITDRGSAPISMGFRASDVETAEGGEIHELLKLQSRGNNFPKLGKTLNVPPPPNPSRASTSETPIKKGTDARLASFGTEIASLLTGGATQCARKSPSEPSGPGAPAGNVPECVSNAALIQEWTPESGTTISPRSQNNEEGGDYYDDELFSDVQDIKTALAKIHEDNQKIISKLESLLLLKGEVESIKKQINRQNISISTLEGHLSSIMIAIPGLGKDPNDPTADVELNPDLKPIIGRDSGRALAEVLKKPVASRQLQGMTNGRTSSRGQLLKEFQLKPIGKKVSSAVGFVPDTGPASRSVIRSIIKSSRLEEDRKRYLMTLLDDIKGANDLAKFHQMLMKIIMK

Cn1nc(C(F)(F)F)cc1C(=O)Nc1ccc(S(=O)(=O)N2CCCC[C@H]2CCN2CCOCC2)cc1 [ERDRP-0519, S(=O)(=O)(N1[C@H](CCN2CCOCC2)CCCC1)c1ccc(NC(=O)c2n(C)nc(C(F)(F)F)c2)cc1]
BLI sensorgram signal (0.027 µM, 0 s after start): 0.003933
BLI sensorgram signal (0.027 µM, 0.2 s after start): 0.003451
BLI sensorgram signal (0.027 µM, 0.4 s after start): 0.003441
BLI sensorgram signal (0.027 µM, 0.6 s after start): 0.002991
BLI sensorgram signal (0.08 µM, 0 s after start): 0.004633
BLI sensorgram signal (0.08 µM, 0.2 s after start): 0.004988
BLI sensorgram signal (0.08 µM, 0.4 s after start): 0.005321
BLI sensorgram signal (0.08 µM, 0.6 s after start): 0.005054
BLI sensorgram signal (0.74 µM, 0 s after start): 0.0125
BLI sensorgram signal (0.74 µM, 0.2 s after start): 0.01183
BLI sensorgram signal (0.74 µM, 0.4 s after start): 0.01188
BLI sensorgram signal (0.74 µM, 0.6 s after start): 0.0114
BLI sensorgram signal (2.22 µM, 0 s after start): 0.01275
BLI sensorgram signal (2.22 µM, 0.2 s after start): 0.01261
BLI sensorgram signal (2.22 µM, 0.4 s after start): 0.01211
BLI sensorgram signal (2.22 µM, 0.6 s after start): 0.01142
BLI sensorgram signal (6.67 µM, 0 s after start): 0.009323
BLI sensorgram signal (6.67 µM, 0.2 s after start): 0.01006
BLI sensorgram signal (6.67 µM, 0.4 s after start): 0.01027
BLI sensorgram signal (6.67 µM, 0.6 s after start): 0.01076
S5 E BLI response versus compound conc. (compound conc. 0.1 uM): 0.01921
S5 F BLI response versus compound conc. (compound conc. 0.1 uM): 0.02408
S5 E BLI response versus compound conc. (compound conc. 0.25 uM): 0.02429
S5 F BLI response versus compound conc. (compound conc. 0.25 uM): 0.0326
S5 E BLI response versus compound conc. (compound conc. 1 uM): 0.03022
S5 F BLI response versus compound conc. (compound conc. 1 uM): 0.03823
S5 E BLI response versus compound conc. (compound conc. 5 uM): 0.0316
S5 F BLI response versus compound conc. (compound conc. 5 uM): 0.04742
S5 B BLI sensorgram response (100 nM, time 0 s): -0.001906
S5 C BLI sensorgram response (100 nM, time 0 s): 0.005581
S5 B BLI sensorgram response (100 nM, time 0.2 s): -0.001896
S5 C BLI sensorgram response (100 nM, time 0.2 s): 0.006504
S5 B BLI sensorgram response (100 nM, time 0.4 s): -0.001894
S5 C BLI sensorgram response (100 nM, time 0.4 s): 0.007379
S5 B BLI sensorgram response (100 nM, time 0.6 s): -0.001966
S5 C BLI sensorgram response (100 nM, time 0.6 s): 0.008161
S5 B BLI sensorgram response (250 nM, time 0 s): -0.005003
S5 C BLI sensorgram response (250 nM, time 0 s): -0.0006808
S5 B BLI sensorgram response (250 nM, time 0.2 s): -0.005217
S5 C BLI sensorgram response (250 nM, time 0.2 s): -0.0001528
S5 B BLI sensorgram response (250 nM, time 0.4 s): -0.005452
S5 C BLI sensorgram response (250 nM, time 0.4 s): 0.0001322
S5 B BLI sensorgram response (250 nM, time 0.6 s): -0.004917
S5 C BLI sensorgram response (250 nM, time 0.6 s): 0.0008364
S5 B BLI sensorgram response (1 µM, time 0 s): -0.01251
S5 C BLI sensorgram response (1 µM, time 0 s): -0.001989
S5 B BLI sensorgram response (1 µM, time 0.2 s): -0.01197
S5 C BLI sensorgram response (1 µM, time 0.2 s): -0.00137
S5 B BLI sensorgram response (1 µM, time 0.4 s): -0.01055
S5 C BLI sensorgram response (1 µM, time 0.4 s): -0.0005476
S5 B BLI sensorgram response (1 µM, time 0.6 s): -0.009819
S5 B BLI sensorgram response (5 µM, time 0 s): -0.006751
S5 B BLI sensorgram response (5 µM, time 0.2 s): -0.006914
S5 C BLI sensorgram response (5 µM, time 0.2 s): 0.003468
S5 B BLI sensorgram response (5 µM, time 0.4 s): -0.007277
S5 C BLI sensorgram response (5 µM, time 0.4 s): 0.003613
S5 B BLI sensorgram response (5 µM, time 0.6 s): -0.007135
S5 C BLI sensorgram response (5 µM, time 0.6 s): 0.003495
S5 B BLI sensorgram response (10 µM, time 0 s): -0.00589
S5 C BLI sensorgram response (10 µM, time 0 s): -0.0007761
S5 B BLI sensorgram response (10 µM, time 0.2 s): -0.006049
S5 C BLI sensorgram response (10 µM, time 0.2 s): -0.00071
S5 B BLI sensorgram response (10 µM, time 0.4 s): -0.006539
S5 C BLI sensorgram response (10 µM, time 0.4 s): -0.000595
S5 B BLI sensorgram response (10 µM, time 0.6 s): -0.006943
S5 C BLI sensorgram response (10 µM, time 0.6 s): -0.0003228
